From patent US9241487B2, “Pyrimidine derivatives and use thereof as pesticides” (BAYER INTELLECTUAL PROPERTY GMBH, priority 2010, dated 2016)

Assays:
[1] = log P by HPLC on reversed-phase columns (C 18), EEC directive 79/831 Annex V.A8; format: physicochemical; conditions: reversed-phase HPLC columns (C 18); method [a]: LC-MS, acidic range pH 2.7, 0.1% aqueous formic acid/acetonitrile, gradient 10% to 95% acetonitrile
Description: The log P values were measured according to EEC directive 79/831 Annex V.A8 by HPLC (High Performance Liquid Chromatography) on reversed-phase columns (C 18), using the methods below: [a] The LC-MS determination in the acidic range is carried out at pH 2.7 with 0.1% aqueous formic acid and acetonitrile (contains 0.1% formic acid) as mobile phases; linear gradient from 10% acetonitrile to 95% acetonitrile.

Sphaerotheca fuliginea = assay: Sphaerotheca test (cucumber)/protective; format: in vivo; conditions: Podosphaera fuliginea, 168 h, cucumber plants, protective spray, evaluation 7 days after inoculation, read-out: Efficacy (%)
Description: Sphaerotheca Test (Cucumber)/Protective
(§1) Solvent: 49 parts by weight of N,N-dimethylformamide
(§2) Emulsifier: 1 part by weight of alkylaryl polyglycol ether
To produce a suitable preparation of active compound, 1 part by weight of active compound is mixed with the stated amounts of solvent and emulsifier, and the concentrate is diluted with water to the desired concentration. To test for protective activity, young cucumber plants are sprayed with the preparation of active compound at the stated application rate. 1 day after the treatment, the plants are inoculated with a spore suspension of Sphaerotheca fuliginea. The plants are then placed in a greenhouse at 70% relative air humidity and a temperature of 23° C. Evaluation follows 7 days after the inoculation. 0% means an efficacy which corresponds to that of the control, whereas an efficacy of 100% means that no infection is observed. In this test, the following compounds according to the invention show, at an active compound concentration of 500 ppm, an efficacy of 70% or more: […]

Alternaria solani = assay: Alternaria test (tomato)/protective; format: in vivo; conditions: 168 h, tomato plants, protective spray, evaluation 7 days after inoculation, read-out: Efficacy (%)
Description: Alternaria Test (Tomato)/Protective
as §1, §2
To produce a suitable preparation of active compound, 1 part by weight of active compound is mixed with the stated amounts of solvent and emulsifier, and the concentrate is diluted with water to the desired concentration. To test for protective activity, young tomato plants are sprayed with the preparation of active compound at the stated application rate. 1 day after the treatment, the plants are inoculated with a spore suspension of Alternaria solani and then remain at 100% rd. humidity and 22° C. for 24 h. The plants then remain at 96% rd. atmospheric humidity and a temperature of 20° C. Evaluation is carried out 7 days after the inoculation. 0% means an efficacy which corresponds to that of the control, whereas an efficacy of 100% means that no infection is observed.
(§3) In this test, the following compounds according to the invention show, at an active compound concentration of 500 ppm, an efficacy of 70% or more: […]

Leptosphaeria nodorum = Leptosphaeria nodorum test (wheat)/protective; format: in vivo; conditions: Parastagonospora nodorum, wheat plants, protective spray, evaluation 7-9 days after inoculation, read-out: Efficacy (%)
Description: Leptosphaeria nodorum Test (Wheat)/Protective
as §1, §2
To produce a suitable preparation of active compound, 1 part by weight of active compound is mixed with the stated amounts of solvent and emulsifier, and the concentrate is diluted with water to the desired concentration. To test for protective activity, young wheat plants are sprayed with the preparation of active compound at the stated application rate. 1 day after the treatment, the plants are inoculated with an aqueous spore suspension of Leptosphaeria nodorum and then remain at 100% relative atmospheric humidity and 22° C. for 48 h. The plants are then placed in a greenhouse at 90% relative atmospheric humidity and a temperature of 22° C. Evaluation is carried out 7-9 days after the inoculation. 0% means an efficacy which corresponds to that of the control, whereas an efficacy of 100% means that no infection is observed. In this test, the following compounds according to the invention show, at an active compound concentration of 500 ppm, an efficacy of 70% or more: […]

[2] = system: Blumeria graminis fsp. hordei; assay: Blumeria graminis test (barley)/protective; format: in vivo; conditions: 168 h, protective spray, evaluation 7 days after inoculation, read-out: Efficacy (%)
Description: Blumeria graminis Test (Barley)/Protective
(§4) Solvent: 49 parts by weight of N,N-dimethylacetamide
as §2
To produce a suitable preparation of active compound, 1 part by weight of active compound is mixed with the stated amounts of solvent and emulsifier, and the concentrate is diluted with water to the desired concentration. To test for protective activity, young plants are sprayed with the preparation of active compound at the stated application rate. After the spray coating has dried on, the plants are dusted with spores of Blumeria graminis fsp. hordei. The plants are placed in a greenhouse at a temperature of about 18° C. and a relative air humidity of about 80% to promote the development of mildew pustules. Evaluation follows 7 days after the inoculation. 0% means an efficacy which corresponds to that of the control, whereas an efficacy of 100% means that no infection is observed.
as §3

Septoria tritici = Septoria tritici test (wheat)/protective; format: in vivo; conditions: Zymoseptoria tritici, 504 h, protective spray, evaluation 21 days after inoculation, read-out: Efficacy (%)
Description: Septoria tritici Test (Wheat)/Protective
as §4, §2
(§5) To produce a suitable preparation of active compound, 1 part by weight of active compound is mixed with the stated amounts of solvent and emulsifier, and the concentrate is diluted with water to the desired concentration. To test for protective activity, young plants are sprayed with the preparation of active compound at the stated application rate. After the spray coating has dried on, the plants are sprayed with a spore suspension of Septoria tritici. The plants remain in an incubation cabin at 20° C. and 100% relative atmospheric humidity for 48 hours. Thereafter, the plants are placed under a translucent hood at 15° C. and 100% relative air humidity for a further 60 hours. The plants are placed in a greenhouse at a temperature of about 15° C. and a relative atmospheric humidity of about 80%. Evaluation follows 21 days after the inoculation. 0% means an efficacy which corresponds to that of the control, whereas an efficacy of 100% means that no infection is observed.
as §3

Puccinia triticina = Puccinia triticina test (wheat)/protective; format: in vivo; conditions: 192 h, protective spray, evaluation 8 days after inoculation, read-out: Efficacy (%)
Description: Puccinia triticina Test (Wheat)/Protective
as §4, §2
as §5, with “sprayed with spores with a spore” for “sprayed with a spore”, “suspension of Puccinia triticina. The plants” for “suspension of Septoria tritici. The plants”, “48 hours. The plants” for “48 hours. Thereafter, the plants are placed under a translucent hood at 15° C. and 100% relative air humidity for a further 60 hours. The plants”, “of about 20° C. and” for “of about 15° C. and”, “Evaluation follows 8 days after” for “Evaluation follows 21 days after”
as §3

Venturia inaequalis = assay: Venturia test (apple)/protective; format: in vivo; conditions: 240 h, protective spray, evaluation 10 days after inoculation, read-out: Efficacy (%)
Description: Venturia Test (Apple)/Protective
(§6) Solvents: 24.5 parts by weight of acetone
(§7) • 24.5 parts by weight of dimethylacetamide Emulsifier: 1 part by weight of alkylaryl polyglycol ether
(§8) To produce a suitable preparation of active compound, 1 part by weight of active compound is mixed with the stated amounts of solvent and emulsifier, and the concentrate is diluted with water to the desired concentration. To test for protective activity, young plants are sprayed with the preparation of active compound at the stated application rate. After the spray coating has dried on, the plants are inoculated with an aqueous conidia suspension of the apple scab pathogen Venturia inaequalis and then remain in an incubation cabin at approx. 20° C. and 100% relative air humidity for 1 day. The plants are then placed in the greenhouse at about 21° C. and a relative atmospheric humidity of about 90%. Evaluation follows 10 days after the inoculation. 0% means an efficacy which corresponds to that of the control, whereas an efficacy of 100% means that no infection is observed.
(§9) In this test, the following compounds according to the invention show, at an active compound concentration of 100 ppm, an efficacy of 70% or more: […]

Uromyces appendiculatus = assay: Uromyces test (bean)/protective; format: in vivo; conditions: 240 h, protective spray, evaluation 10 days after inoculation, read-out: Efficacy (%)
Description: Uromyces Test (Bean)/Protective
as §6, §7
as §8, with “spore” for “conidia”, “bean rust” for “apple scab”, “Uromyces appendiculatus” for “Venturia inaequalis”, “about” for “approx.”, “atmospheric” for “air”
as §9

Compound | chromatographic logP [1] | pest or weed control at 500 ppm (Sphaerotheca fuliginea) [%] | pest or weed control at 500 ppm (Alternaria solani) [%] | pest or weed control at 500 ppm (Leptosphaeria nodorum) [%] | pest or weed control at 500 ppm [2] [%] | pest or weed control at 500 ppm (Septoria tritici) [%] | pest or weed control at 500 ppm (Puccinia triticina) [%] | pest or weed control at 100 ppm (Venturia inaequalis) [%] | pest or weed control at 100 ppm (Uromyces appendiculatus) [%]
CC1(C(O)(COc2ccc(SC(F)(F)F)cc2)c2cncnc2)CC1 (stereo not drawn) [Compound 19] | 3.3 | 95 | 90 | 95 | 100 | 86 | 100 |  | 
CC(C)(C)C(O)(COc1ccc(SC(F)(F)F)c(Cl)c1)c1cncnc1 (stereo not drawn) [Compound 31] | 3.76 | 100 | 95 | 95 |  |  |  | 99 | 100
CC(C)(C)C(O)(COc1ccc(S(=O)(=O)C(F)(F)F)cc1)c1cncnc1 (stereo not drawn) [Compound 33] | 2.82 | 95 | 89 | 94 | 100 |  | 100 | 99 | 100
Cc1cc(OC(F)(F)F)ccc1OCC(O)(c1cncnc1)C(C)(C)C (stereo not drawn) [Compound 30] | 3.59 | 100 | 90 | 89 | 100 | 71 | 100 | 98 | 100
